14 molecules from publication PMC7601695, “Transcriptome Analysis of Psacothea hilaris: De Novo Assembly and Antimicrobial Peptide Prediction” (Insects, 2020) can be followed below.

What all share (type): cell-based
Data set [1] has as its system Staphylococcus aureus (KACC 10768, ATCC 25923). Nature of the data set: Radial diffusion assay, S. aureus. The following applies: peptide 200 μg/mL, 5 μL per 3-mm well, 3 h diffusion then 12 h at 37 °C, mean of tests repeated three times. The method, then: (§1) The bacterial strains Escherichia coli (KACC 13821, ATCC 11775) and Staphylococcus aureus (KACC 10768, ATCC 25923), and the yeast strain Candida albicans (KCTC 7121, ATCC 14053) were purchased from the Korean Agricultural Culture Collection (KACC) and Korean Collection for Type Cultures (KCTC). Both bacteria and yeast were grown overnight in tryptic soy broth (TSB; Difco, Thermo Fisher Scientific, Waltham, MA, USA) at 37 °C, 200 rpm to the stationary phase. Bacteria were re-inoculated in fresh TSB medium and cultivated for 3 h to the log phase. The strains were stored with 15% glycerol at −70 °C.
(§2) The radial diffusion assay was performed to test the antimicrobial activities of peptides, as described previously with slight modifications. In brief, bacteria and yeast strains were grown to the mid-logarithmic phase in TSB at 37 °C and then washed twice with 10 mM sodium phosphate buffer (pH 7.4). A total of 4 × 10^6 colony forming unit (CFU) was added to 10 mL of an underlay agarose gel (9 mM sodium phosphate, 1 mM sodium citrate, pH 7.4, 1% (w/v) Type I (low electroendosmosis) agarose (Sigma, St. Louis, MO, USA), and 3% TSB (Difco, USA)). The underlay gel was poured into a 100-mm INTEGRIDTM Petri dish. After agarose solidification, 3-mm-diameter wells were punched and 5 μL of each peptide solution was added to each well. Buffer alone was used as a negative control. Plates were incubated at 37 °C for 3 h to allow for diffusion of the peptides. The underlay gel was then covered with 10 mL of nutrient-rich agar overlay (6% TSB and 1% agarose). The antimicrobial activity of a peptide was measured as the diameter of the cleared zone around each well after 12 h of incubation at 37 °C. This experiment was repeated at least 3 times.

Another data set concerns mouse erythrocytes. Nature of the data set: Hemolytic assay. The following applies: 12.5 μg/mL; 2.5% (v/v) mouse erythrocytes in PBS; 30 min, 37 °C; A540. The method, then: This experiment was approved by the Institutional Animal Care and Use Committee (IACUC) of the National Institute of Agricultural Sciences (approval number: NAS-202014). The hemolytic activity of the peptides was determined by monitoring the release of hemoglobin from mouse erythrocytes at 540 nm. For the hemolytic assay, 20 μL of each peptide solution at a predetermined concentration was added to 180 μL of a 2.5% (v/v) suspension of mouse erythrocytes in phosphate-buffered saline (PBS). Melittin (Sigma), a hemolytic and α-helical peptide isolated from bee venom, were used as the positive control. This mixture was incubated for 30 min at 37 °C, and 600 μL of PBS was then added to each tube. After 3 min of centrifugation at 10,000× g, the supernatant was […], and the absorbance was measured at 540 nm. Evaluations were made from the results of at least three independent experiments, each carried out in triplicate.
Figure 4 Cytotoxic effects of 13 selected peptides. Hemolytic activity of the peptides. Peptide concentration (x-axis) is plotted against the percentage of hemolysis (y-axis) of mouse red blood cells after incubation for 30 min. Melittin was used as the positive control. The percent hemolysis was calculated with the following equation: hemolysis (%) = (A540 of samp—A540 of peptide-free control)/(A540 of 100% control—A540 of peptide-free control) × 100. […]

In data set [2] the test system is Escherichia coli (KACC 13821, ATCC 11775). As to the kind of experiment: Radial diffusion assay, E. coli. To be noted: for Diameter of clearing zone, E. coli: peptide 200 μg/mL, 5 μL per 3-mm well, 3 h diffusion then 12 h at 37 °C, mean of tests repeated three times; for Antimicrobial activity compared with melittin, E. coli: in words. Here is the method:
as §1, §2

For data set [3], the system named is Candida albicans (KCTC 7121, ATCC 14053). As to the kind of experiment: Radial diffusion assay, C. albicans. To be noted: for Diameter of clearing zone, C. albicans: peptide 200 μg/mL, 5 μL per 3-mm well, 3 h diffusion then 12 h at 37 °C, mean of tests repeated three times; for Antimicrobial activity compared with melittin, C. albicans: in words. The method, then: as §1, §2

`CC[C@H](C)[C@H](NC(=O)CN)C(=O)NCC(=O)N[C@@H](C)C(=O)N[C@H](C(=O)N[C@@H](CC(C)C)C(=O)N[C@@H](CCCCN)C(=O)N[C@H](C(=O)N[C@@H](CC(C)C)C(=O)N[C@H](C(=O)N[C@H](C(=O)NCC(=O)N[C@@H](CC(C)C)C(=O)N1CCC[C@H]1C(=O)N[C@@H](C)C(=O)N[C@@H](CC(C)C)C(=O)N[C@H](C(=O)N[C@@H](CO)C(=O)N[C@@H](Cc1c[nH]c2ccccc12)C(=O)N[C@H](C(=O)N[C@@H](CCCCN)C(=O)N[C@@H](CCCNC(=N)N)C(=O)N[C@@H](CCCCN)C(=O)N[C@@H](CCCNC(=N)N)C(=O)N[C@@H](CCC(N)=O)C(=O)N[C@@H](CCC(N)=O)C(N)=O)[C@@H](C)CC)[C@@H](C)CC)[C@@H](C)O)[C@@H](C)O)C(C)C)C(C)C` [Melittin, reference compound]: in data set [1], the “Diameter of clearing zone, S. aureus” value was 100 Units (1 mm = 10 Units). In addition, the “Hemolysis of mouse red blood cells” value in the data set on mouse erythrocytes came out at 92%. Also, the “Diameter of clearing zone, E. coli” value in data set [2] is reported as 75 Units (1 mm = 10 Units). The “Diameter of clearing zone, C. albicans” value in data set [3] is reported as 65 Units (1 mm = 10 Units).

In the case of “KIGTFIKKLSYTS * [Ph 26, synthetic peptide predicted as novel AMP from the P. hilaris transcriptome]”, in data set [1], the “Diameter of clearing zone, S. aureus” value was 75 Units (1 mm = 10 Units). Also, in data set [2], the “Antimicrobial activity compared with melittin, E. coli” value is “stronger antimicrobial activity than melittin” and the “Diameter of clearing zone, E. coli” value is recorded as 85 Units (1 mm = 10 Units). Moreover, the “Diameter of clearing zone, C. albicans” value in data set [3] is listed as 25 Units (1 mm = 10 Units).

Regarding “KLPIVNVKLVNRIK * [Ph 2, synthetic peptide predicted as novel AMP from the P. hilaris transcriptome]”, the “Diameter of clearing zone, S. aureus” value in data set [1] was 90 Units (1 mm = 10 Units). Further, in data set [2], the “Antimicrobial activity compared with melittin, E. coli” value is reported as “stronger antimicrobial activity than melittin” and the “Diameter of clearing zone, E. coli” value is 80 Units (1 mm = 10 Units). Moreover, in data set [3], the “Antimicrobial activity compared with melittin, C. albicans” value was “stronger antimicrobial activity than melittin” and the “Diameter of clearing zone, C. albicans” value is reported as 80 Units (1 mm = 10 Units).

For the molecule “KLQVVPAIHLVWLQK * [Ph 4, synthetic peptide predicted as novel AMP from the P. hilaris transcriptome]”, the “Diameter of clearing zone, S. aureus” value in data set [1] was 80 Units (1 mm = 10 Units). Besides, the “Diameter of clearing zone, E. coli” value in data set [2] is on record as 75 Units (1 mm = 10 Units). In addition, the “Diameter of clearing zone, C. albicans” value in data set [3] is given as 30 Units (1 mm = 10 Units).

Consider “KLSNAVFKSCRKI * [Ph 24, synthetic peptide predicted as novel AMP from the P. hilaris transcriptome]”, for which, in data set [1], the “Diameter of clearing zone, S. aureus” value is reported as 65 Units (1 mm = 10 Units). For the same molecule, the “Diameter of clearing zone, E. coli” value in data set [2] was 49 Units (1 mm = 10 Units). For the same molecule, the “Diameter of clearing zone, C. albicans” value in data set [3] is listed as 47 Units (1 mm = 10 Units).

As to “KMFTKCIRYRKM * [Ph 20, synthetic peptide predicted as novel AMP from the P. hilaris transcriptome]”, the “Diameter of clearing zone, S. aureus” value in data set [1] was 85 Units (1 mm = 10 Units). In addition, the “Diameter of clearing zone, E. coli” value in data set [2] is on record as 65 Units (1 mm = 10 Units). Moreover, the “Diameter of clearing zone, C. albicans” value in data set [3] is on record as 68 Units (1 mm = 10 Units).

On to “KRGYQVPRIAFII * [Ph 3, synthetic peptide predicted as novel AMP from the P. hilaris transcriptome]”, for which the “Diameter of clearing zone, S. aureus” value in data set [1] is listed as 85 Units (1 mm = 10 Units). Besides, the “Diameter of clearing zone, E. coli” value in data set [2] was 72 Units (1 mm = 10 Units). In data set [3], the “Antimicrobial activity compared with melittin, C. albicans” value was “stronger antimicrobial activity than melittin” and the “Diameter of clearing zone, C. albicans” value was 80 Units (1 mm = 10 Units).

For “KRIFYLYIRGQ * [Ph 22, synthetic peptide predicted as novel AMP from the P. hilaris transcriptome]”, the “Diameter of clearing zone, S. aureus” value in data set [1] is recorded as 95 Units (1 mm = 10 Units). For the same molecule, in data set [2], the “Antimicrobial activity compared with melittin, E. coli” value is listed as “stronger antimicrobial activity than melittin” and the “Diameter of clearing zone, E. coli” value was 85 Units (1 mm = 10 Units). In data set [3], the “Antimicrobial activity compared with melittin, C. albicans” value is given as “stronger antimicrobial activity than melittin” and the “Diameter of clearing zone, C. albicans” value is recorded as 92 Units (1 mm = 10 Units).

Turning to “RAIKWPGNGLLFLKY * [Ph 1, synthetic peptide predicted as novel AMP from the P. hilaris transcriptome]”, the “Diameter of clearing zone, S. aureus” value in data set [1] is on record as 86 Units (1 mm = 10 Units). Moreover, in data set [2], the “Antimicrobial activity compared with melittin, E. coli” value is listed as “stronger antimicrobial activity than melittin” and the “Diameter of clearing zone, E. coli” value was 85 Units (1 mm = 10 Units). In addition, the “Diameter of clearing zone, C. albicans” value in data set [3] is on record as 65 Units (1 mm = 10 Units).

For the molecule “RCLKTCFLSFIRY * [Ph 8, synthetic peptide predicted as novel AMP from the P. hilaris transcriptome]”, the “Diameter of clearing zone, S. aureus” value in data set [1] is listed as 83 Units (1 mm = 10 Units). Besides, the “Diameter of clearing zone, E. coli” value in data set [2] is listed as 71 Units (1 mm = 10 Units). Moreover, the “Diameter of clearing zone, C. albicans” value in data set [3] was 45 Units (1 mm = 10 Units).

With “RISCVAMRLILK * [Ph 10, synthetic peptide predicted as novel AMP from the P. hilaris transcriptome]”, in data set [1], the “Diameter of clearing zone, S. aureus” value was 72 Units (1 mm = 10 Units). In addition, the “Diameter of clearing zone, E. coli” value in data set [2] was 67 Units (1 mm = 10 Units). Moreover, the “Diameter of clearing zone, C. albicans” value in data set [3] is on record as 48 Units (1 mm = 10 Units).

As to “RKSWRHWKC * [Ph 16, synthetic peptide predicted as novel AMP from the P. hilaris transcriptome]”, the “Diameter of clearing zone, S. aureus” value in data set [1] is recorded as 87 Units (1 mm = 10 Units). Moreover, the “Diameter of clearing zone, E. coli” value in data set [2] was 50 Units (1 mm = 10 Units). Further, the “Diameter of clearing zone, C. albicans” value in data set [3] is reported as 65 Units (1 mm = 10 Units).

In the case of “RLLLLCYACGKS * [Ph 12, synthetic peptide predicted as novel AMP from the P. hilaris transcriptome]”, in data set [1], the “Diameter of clearing zone, S. aureus” value is 75 Units (1 mm = 10 Units). The “Diameter of clearing zone, E. coli” value in data set [2] is given as 70 Units (1 mm = 10 Units). Further, the “Diameter of clearing zone, C. albicans” value in data set [3] is listed as 40 Units (1 mm = 10 Units).

On to “RRRCRCCRY * [Ph 14, synthetic peptide predicted as novel AMP from the P. hilaris transcriptome]”, for which the “Diameter of clearing zone, S. aureus” value in data set [1] is given as 70 Units (1 mm = 10 Units). Also, the “Diameter of clearing zone, E. coli” value in data set [2] was 65 Units (1 mm = 10 Units). Further, in data set [3], the “Antimicrobial activity compared with melittin, C. albicans” value is reported as “stronger antimicrobial activity than melittin” and the “Diameter of clearing zone, C. albicans” value is reported as 105 Units (1 mm = 10 Units).
